The values below come from US9511073B2, “Aromatic amides and uses thereof” (TAXIS Pharmaceuticals, Inc., priority 2011, dated 2016).

≈ marks a conversion by molar mass, not a printed value.

The experiment concerns Staphylococcus aureus (Isolate ID ATCC 29213). Briefly: Bacterial assay: MIC by broth microdilution or agar dilution (CLSI), S. aureus ATCC 29213. It counts as cell-based. The settings on record: Staphylococcus aureus, ATCC29213, read-out: S. aureus MIC (μg/mL) Activity Range, S. aureus (ATCC29213). In a few lines:
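MICs by CLSI broth microdilution or agar dilution against S. aureus ATCC 29213 and its FtsZ-G196A mutant. Values reported as ranges: A ≤0.25 μg/mL, B >0.25–1.0, C >1.0–16, D >16 μg/mL.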
(In general: In broth dilution the organism is exposed to a series of concentrations in liquid medium.)
`COCCn1cnnc1CNC(=O)OCC(Oc1ccc(F)c(C(N)=O)c1F)c1nc(-c2ccc(C(F)(F)F)cc2)c(Br)o1` (stereo not shown) [Compound 206, 2-(5-bromo-4-(4-(trifluoromethyl)phenyl)oxazol-2-yl)-2-(3-carbamoyl-2,4-difluorophenoxy)ethyl ((4-(2-methoxyethyl)-4H-1,2,4-triazol-3-yl)methyl)carbamate]: the MIC lay within 1 to 16 µg/mL (≈ 1.45 to 23.2 µM).

For the compound `COCCn1cncc1CNC(=O)OCC(Oc1ccc(F)c(C(N)=O)c1F)c1nc(-c2ccc(C(F)(F)F)cc2)c(Br)o1` (stereo not shown) [Compound 207, 2-(5-bromo-4-(4-(trifluoromethyl)phenyl)oxazol-2-yl)-2-(3-carbamoyl-2,4-difluorophenoxy)ethyl ((1-(2-methoxyethyl)-1H-imidazol-5-yl)methyl)carbamate], the MIC fell in the range of 1 to 16 µg/mL (≈ 1.45 to 23.2 µM).

On to `COc1ccc(CNC(=O)OCC(Oc2ccc(F)c(C(N)=O)c2F)c2nc(-c3ccc(C(F)(F)F)cc3)c(Br)o2)cn1` (stereo not shown) [Compound 208, 2-(5-bromo-4-(4-(trifluoromethyl)phenyl)oxazol-2-yl)-2-(3-carbamoyl-2,4-difluorophenoxy)ethyl ((6-methoxypyridin-3-yl)methyl)carbamate], for which the MIC lay within 0.25 to 1 µg/mL (≈ 0.372 to 1.49 µM).

Consider `COc1cc(CNC(=O)OCC(Oc2ccc(F)c(C(N)=O)c2F)c2nc(-c3ccc(C(F)(F)F)cc3)c(Br)o2)ccn1` (stereo not shown) [Compound 209, 2-(5-bromo-4-(4-(trifluoromethyl)phenyl)oxazol-2-yl)-2-(3-carbamoyl-2,4-difluorophenoxy)ethyl ((2-methoxypyridin-4-yl)methyl)carbamate], for which the MIC was in the range of 0.25 to 1 µg/mL (≈ 0.372 to 1.49 µM).

On to `Cn1c(CNC(=O)OCC(Oc2ccc(F)c(C(N)=O)c2F)c2nc(-c3ccc(C(F)(F)F)cc3)c(Br)o2)nc2ccccc21` (stereo not shown) [Compound 210, 2-(5-bromo-4-(4-(trifluoromethyl)phenyl)oxazol-2-yl)-2-(3-carbamoyl-2,4-difluorophenoxy)ethyl ((1-methyl-1H-benzo[d]imidazol-2-yl)methyl)carbamate], for which the MIC was 0.25 to 1 µg/mL (≈ 0.36 to 1.44 µM).

As for `Cc1ccc(CNC(=O)OCC(Oc2ccc(F)c(C(N)=O)c2F)c2nc(-c3ccc(C(F)(F)F)cc3)c(Br)o2)n1C` (stereo not shown) [Compound 211, 2-(5-bromo-4-(4-(trifluoromethyl)phenyl)oxazol-2-yl)-2-(3-carbamoyl-2,4-difluorophenoxy)ethyl ((1,5-dimethyl-1H-pyrrol-2-yl)methyl)carbamate], the MIC was 0.25 to 1 µg/mL (≈ 0.38 to 1.52 µM).

Consider `Cc1cc(CNC(=O)OCC(Oc2ccc(F)c(C(N)=O)c2F)c2nc(-c3ccc(C(F)(F)F)cc3)c(Br)o2)n(C)n1` (stereo not shown) [Compound 212, 2-(5-bromo-4-(4-(trifluoromethyl)phenyl)oxazol-2-yl)-2-(3-carbamoyl-2,4-difluorophenoxy)ethyl ((1,3-dimethyl-1H-pyrazol-5-yl)methyl)carbamate], for which the MIC lay in the range of 0.25 to 1 µg/mL (≈ 0.38 to 1.52 µM).

Consider `Cc1cc(CNC(=O)OCC(Oc2ccc(F)c(C(N)=O)c2F)c2nc(-c3ccc(C(F)(F)F)cc3)c(Br)o2)nn1C` (stereo not shown) [Compound 213, 2-(5-bromo-4-(4-(trifluoromethyl)phenyl)oxazol-2-yl)-2-(3-carbamoyl-2,4-difluorophenoxy)ethyl ((1,5-dimethyl-1H-pyrazol-3-yl)methyl)carbamate], for which the MIC is 0.25 to 1 µg/mL (≈ 0.38 to 1.52 µM).

As to `Cc1ccc(CNC(=O)OCC(Oc2ccc(F)c(C(N)=O)c2F)c2nc(-c3ccc(C(F)(F)F)cc3)c(Br)o2)cn1` (stereo not shown) [Compound 214, 2-(5-bromo-4-(4-(trifluoromethyl)phenyl)oxazol-2-yl)-2-(3-carbamoyl-2,4-difluorophenoxy)ethyl ((6-methylpyridin-3-yl)methyl)carbamate], the MIC was in the range of 0.25 to 1 µg/mL (≈ 0.381 to 1.53 µM).

Consider `Cc1ncccc1CNC(=O)OCC(Oc1ccc(F)c(C(N)=O)c1F)c1nc(-c2ccc(C(F)(F)F)cc2)c(Br)o1` (stereo not shown) [Compound 215, 2-(5-bromo-4-(4-(trifluoromethyl)phenyl)oxazol-2-yl)-2-(3-carbamoyl-2,4-difluorophenoxy)ethyl ((2-methylpyridin-3-yl)methyl)carbamate], for which the MIC was in the range of 0.25 to 1 µg/mL (≈ 0.381 to 1.53 µM).

For the compound `Cc1cnccc1CNC(=O)OCC(Oc1ccc(F)c(C(N)=O)c1F)c1nc(-c2ccc(C(F)(F)F)cc2)c(Br)o1` (stereo not shown) [Compound 216, 2-(5-bromo-4-(4-(trifluoromethyl)phenyl)oxazol-2-yl)-2-(3-carbamoyl-2,4-difluorophenoxy)ethyl ((3-methylpyridin-4-yl)methyl)carbamate], the MIC is 0.25 to 1 µg/mL (≈ 0.381 to 1.53 µM).

Turning to `NC(=O)c1c(F)ccc(OC(COC(=O)NCCn2ccccc2=O)c2nc(-c3ccc(C(F)(F)F)cc3)c(Br)o2)c1F` (stereo not shown) [Compound 217, 2-(5-bromo-4-(4-(trifluoromethyl)phenyl)oxazol-2-yl)-2-(3-carbamoyl-2,4-difluorophenoxy)ethyl (2-(2-oxopyridin-1(2H)-yl)ethyl)carbamate], the MIC was in the range of 0.25 to 1 µg/mL (≈ 0.372 to 1.49 µM).

Regarding `Cc1nnc(C(Oc2ccc(F)c(C(N)=O)c2F)c2nc(-c3ccc(C(F)(F)F)cc3)co2)o1` (stereo not shown) [Compound 218, 2,6-difluoro-3-((5-methyl-1,3,4-oxadiazol-2-yl)(4-(4-(trifluoromethyl)phenyl)oxazol-2-yl)methoxy)benzamide], the MIC is over 16 µg/mL.

For the compound `CC(=O)OCC(OC(C)=O)C(Oc1ccc(F)c(C(N)=O)c1F)c1nc(-c2ccc(C(F)(F)F)cc2)c(Br)o1` (stereo not shown) [Compound 219, 3-(5-bromo-4-(4-(trifluoromethyl)phenyl)oxazol-2-yl)-3-(3-carbamoyl-2,4-difluorophenoxy)propane-1,2-diyl diacetate], the MIC is over 16 µg/mL.

Regarding `CNc1ccc(-c2coc(C(CO)Oc3ccc(F)c(C(N)=O)c3F)n2)cn1` (stereo not shown) [Compound 220, 2,6-difluoro-3-(2-hydroxy-1-(4-(6-(methylamino)pyridin-3-yl)oxazol-2-yl)ethoxy)benzamide], the MIC was over 16 µg/mL.

In the case of `CCCc1nc(C(CO)Oc2ccc(F)c(C(N)=O)c2F)oc1Br` (stereo not shown) [Compound 221, 3-(1-(5-bromo-4-propyloxazol-2-yl)-2-hydroxyethoxy)-2,6-difluorobenzamide], the MIC was 1 to 16 µg/mL (≈ 2.47 to 39.5 µM).

For the compound `NC(=O)c1c(F)ccc(OC(CO)c2nc(-c3ccc(Cl)c(F)c3)co2)c1F` (stereo not shown) [Compound 222, 3-(1-(4-(4-chloro-3-fluorophenyl)oxazol-2-yl)-2-hydroxyethoxy)-2,6-difluorobenzamide], the MIC is over 16 µg/mL.

As to `NC(=O)c1c(F)ccc(OC(CO)c2nc(-c3ccccc3F)co2)c1F` (stereo not shown) [Compound 223, 2,6-difluoro-3-(1-(4-(2-fluorophenyl)oxazol-2-yl)-2-hydroxyethoxy)benzamide], the MIC is over 16 µg/mL.

Turning to `CNc1ccc(-c2nc(C(CO)Oc3ccc(F)c(C(N)=O)c3F)oc2Br)cn1` (stereo not shown) [Compound 224, 3-(1-(5-bromo-4-(6-(methylamino)pyridin-3-yl)oxazol-2-yl)-2-hydroxyethoxy)-2,6-difluorobenzamide], the MIC was over 16 µg/mL.

On to `NC(=O)c1c(F)ccc(OC(CO)c2nc(-c3ccc(Cl)c(F)c3)c(Br)o2)c1F` (stereo not shown) [Compound 225, 3-(1-(5-bromo-4-(4-chloro-3-fluorophenyl)oxazol-2-yl)-2-hydroxyethoxy)-2,6-difluorobenzamide], for which the MIC fell in the range of 0.25 to 1 µg/mL (≈ 0.508 to 2.03 µM).

Take `NC(=O)c1c(F)ccc(OC(CO)c2nc(-c3ccc(F)cc3F)co2)c1F` (stereo not shown) [Compound 226, 3-(1-(4-(2,4-difluorophenyl)oxazol-2-yl)-2-hydroxyethoxy)-2,6-difluorobenzamide]: the MIC is over 16 µg/mL.

Turning to `COc1cc(Cl)ccc1-c1coc(C(CO)Oc2ccc(F)c(C(N)=O)c2F)n1` (stereo not shown) [Compound 227, 3-(1-(4-(4-chloro-2-methoxyphenyl)oxazol-2-yl)-2-hydroxyethoxy)-2,6-difluorobenzamide], the MIC was over 16 µg/mL.

Regarding `COc1ccc(-c2coc(C(CO)Oc3ccc(F)c(C(N)=O)c3F)n2)c(F)c1` (stereo not shown) [Compound 228, 2,6-difluoro-3-(1-(4-(2-fluoro-4-methoxyphenyl)oxazol-2-yl)-2-hydroxyethoxy)benzamide], the MIC was over 16 µg/mL.

Turning to `NC(=O)c1c(F)ccc(OC(CO)c2nc(-c3ccccc3F)c(Br)o2)c1F` (stereo not shown) [Compound 229, 3-(1-(5-bromo-4-(2-fluorophenyl)oxazol-2-yl)-2-hydroxyethoxy)-2,6-difluorobenzamide], the MIC is over 16 µg/mL.

As to `COc1ccc(-c2nc(C(CO)Oc3ccc(F)c(C(N)=O)c3F)oc2Br)cn1` (stereo not shown) [Compound 230, 3-(1-(5-bromo-4-(6-methoxypyridin-3-yl)oxazol-2-yl)-2-hydroxyethoxy)-2,6-difluorobenzamide], the MIC fell in the range of 1 to 16 µg/mL (≈ 2.13 to 34 µM).

Consider `Cc1ccc(-c2nc(C(CO)Oc3ccc(F)c(C(N)=O)c3F)oc2Br)cn1` (stereo not shown) [Compound 231, 3-(1-(5-bromo-4-(6-methylpyridin-3-yl)oxazol-2-yl)-2-hydroxyethoxy)-2,6-difluorobenzamide], for which the MIC is over 16 µg/mL.

`COc1cc(Cl)c(Br)cc1-c1nc(C(CO)Oc2ccc(F)c(C(N)=O)c2F)oc1Br` (stereo not shown) [Compound 232, 3-(1-(5-bromo-4-(5-bromo-4-chloro-2-methoxyphenyl)oxazol-2-yl)-2-hydroxyethoxy)-2,6-difluorobenzamide]: the MIC fell in the range of 1 to 16 µg/mL (≈ 1.72 to 27.5 µM).

Regarding `COc1ccc(-c2nc(C(CO)Oc3ccc(F)c(C(N)=O)c3F)oc2Br)c(F)c1` (stereo not shown) [Compound 234, 3-(1-(5-bromo-4-(2-fluoro-4-methoxyphenyl)oxazol-2-yl)-2-hydroxyethoxy)-2,6-difluorobenzamide], the MIC fell in the range of 0.25 to 1 µg/mL (≈ 0.513 to 2.05 µM).

As to `NC(=O)c1c(F)ccc(OC(CO)c2nc(-c3ccc(Cl)cc3F)c(Br)o2)c1F` (stereo not shown) [Compound 235, 3-(1-(5-bromo-4-(4-chloro-2-fluorophenyl)oxazol-2-yl)-2-hydroxyethoxy)-2,6-difluorobenzamide], the MIC is under 0.25 µg/mL.

`N#Cc1ccc(-c2nc(C(CO)Oc3ccc(F)c(C(N)=O)c3F)oc2Br)s1` (stereo not shown) [Compound 236, 3-(1-(5-bromo-4-(5-cyanothiophen-2-yl)oxazol-2-yl)-2-hydroxyethoxy)-2,6-difluorobenzamide]: the MIC was in the range of 0.25 to 1 µg/mL (≈ 0.532 to 2.13 µM).

Turning to `NC(=O)c1c(F)ccc(OC(CO)c2nc(-c3ccc(Br)s3)c(Br)o2)c1F` (stereo not shown) [Compound 237, 3-(1-(5-bromo-4-(5-bromothiophen-2-yl)oxazol-2-yl)-2-hydroxyethoxy)-2,6-difluorobenzamide], the MIC is 0.25 to 1 µg/mL (≈ 0.477 to 1.91 µM).
